This is an account of results in EP1016409B1, “FREEZE DRIED COMPOSITION COMPRISING GLYCOSPHINGOLIPIDS” (KIRIN BEER KABUSHIKI KAISHA, priority 1997, dated 1998).

Common to all, as to type: physicochemical
Series [1] can be described thus: Cooling condition after dissolution with heating 2: turbidity after storage. The following applies: lyophilized composition (Polysorbate 20 0.5%, histidine 0.75%, sucrose 5.6%) stored at 50°C for 1 week, reconstituted. How it is done: First, Polysorbate 20 was dissolved in distilled water in a concentration of 0.5%, histidine in a concentration of 0.75%, and sucrose in a concentration of 5.6%. Next, 800 mg of the active component (KRN7000) was weighed and stirred in 4 liters of the solvent under heating at 73°C for 30 minutes in order to form a solution. After dissolution, the mixture was divided into about 500 ml portions, cooled rapidly - gradually with stirring under the following six rates:
After cooling, the mixtures were filtered through a 0.22 µm filter, and transparent colorless glass vials having a volume of 5 ml were charged with a 1 ml portion of each of a variety of solutions thus obtained and subjected to lyophilization. Lyophilization was carried out under the condition of preliminary freezing at -50°C for 5 hours and drying at -15°C for 48 hours, 10°C for 12 hours, and finally at 25°C for 7 hours to give the lyophilized product. The degree of vacuum was set at 0.1 Torr or less during drying step.
After lyophilization, the lyophilized composition thus obtained was stored at 50°C for 1 week, and the turbidity of the reconstituted solution was measured. In this connection, the turbidity of the lyophilized composition was used which was reconstituted in 1 ml of distilled water for injection and left standing for 30 minutes, and turbidity was measured when the foams generated on reconstitution disappeared.
The turbidity was measured by the following method: various dilutions including 50-fold dilution (kaolin 2 µg/ml, turbidity 2.00), 100-fold dilution (kaolin 1 µg/ml, turbidity 1.00), and 200-fold dilution (kaolin 0.5 µg/ml, turbidity 0.50) were prepared by diluting the turbidity standard (kaolin, […]) with distilled water. A calibration curve was made by measuring the absorbance at a wave length of 660 nm with a control of distilled water and the various dilutions in a spectrophotometer (HITACHI U-3210). Next, the absorbance of the solutions was measured under the same condition as above to calculate the turbidity of the solutions.

Series [2] can be described thus: Additives for improving re-solubility during storage, mannitol as excipient. The following applies: lyophilized, KRN7000 200 µg/ml, Polysorbate 20 0.5%, 25°C. The protocol: First, Polysorbate 20 was dissolved in distilled water in a concentration of 0.5%, and mannitol and a variety of additives such concentrations as listed in Table 8. Next, 20 mg of the active component (KRN7000) was weighed and stirred in 100 ml of the solvents in a heated bath to 80°C for 20 minutes in order to form a solution. After cooling with running water, the mixture was filtered through a 0.22 µm filter, and transparent colorless glass vials having a volume of 5 ml were charged with a 1 ml portion of each of a variety of solutions thus obtained and subjected to lyophilization. Lyophilization was carried out under the condition of preliminary freezing at -40°C for 2 hours and drying at -20°C for 24 hours, 10°C for 12 hours, and finally at 25°C for 5 hours to give the lyophilized product. The degree of vacuum was set at 0.1 Torr or less during drying step.
After the lyophilization step, the lyophilized composition was stored at 25°C. After storage for 1 month, the lyophilized composition was reconstituted in 1 ml of distilled water for injection, left standing for 30 minutes, and solubility was judged when the foams generated on reconstitution disappeared. The samples judged in solution were further stored, and judged again of their solubility after 4 months.
The solubility was judged by cleaning the outside of the vial and placing it beneath the white light source in a darkroom for observation with naked eye at the position of a luminous intensity of about 5,000 lux. When the sample was clear with no precipitates, it was judged that the active component was dissolved.

Series [3] can be described thus: Addition effects of sodium deoxycholate and histidine in the absence of a sugar. The following applies: lyophilized, KRN7000 200 µg/ml, Polysorbate 20 0.5%, 1%, no sugar, 50°C. The protocol:
Addition effects of sodium deoxycholate and histidine in the absence of a sugar as the excipient was examined.
First, Polysorbate 20 was dissolved in distilled water in a concentration of 0.5%, and histidine or sodium deoxycholate in a concentration of 1.0%. Next, 20 mg of the active component (KRN7000) was weighed and stirred in 100 ml of the solvents in a heated bath to 80°C for 20 minutes in order to form a solution. After cooling with running water, the mixture was filtered through a 0.22 µm filter, and transparent colorless glass vials having a volume of 5 ml were charged with a 1 ml portion of each of a variety of solutions thus obtained and subjected to lyophilization. Lyophilization was carried out under the condition of preliminary freezing at -40°C for 2 hours and drying at -20°C for 24 hours, 10°C for 12 hours, and finally at 25°C for 5 hours to give the lyophilized product. The degree of vacuum was set at 0.1 Torr or less during drying step.
After the lyophilization step, the lyophilized composition thus obtained was stored at 50°C. After storage for 3 days or 2 weeks, the lyophilized composition was reconstituted in 1 ml of distilled water for injection, left standing for 30 minutes, and solubility was judged when the foams generated on reconstitution disappeared. […]

On to `CCCCCCCCCCCCCCCCCCCCCCCCCC(=O)N[C@@H](CO[C@H]1O[C@H](CO)[C@H](O)[C@H](O)[C@H]1O)[C@H](O)[C@H](O)CCCCCCCCCCCCCC` [KRN7000, (2S,3S,4R)-1-(α-D-galactopyranosyloxy)-2-hexacosanoylamino-3,4-octadecanediol], for which the Turbidity in series [1] (cooling ① 73°C → 30°C, 4 minutes (10.75°C/min)) is 2.08; in series [1] (cooling ② 73°C → 30°C, 6 minutes (7.17°C/min)), 2.67; in series [1] (cooling ③ 73°C → 30°C, 7 minutes (6.14°C/min)), 3.31; in series [1] (cooling ④ 73°C → 30°C, 10 minutes (4.30°C/min)) it was 3.80; in series [1] (cooling ⑤ 73°C → 30°C, 23 minutes (1.87°C/min)) it was 6.44; in series [1] (cooling ⑥ 73°C → 30°C, 120 minutes (0.36°C/min)), 18.84. In addition, the “Re-solubility after storage (by naked eye)” value (from here on “Re-solubility after storage”) in series [2] (Mannitol 10%, Sodium deoxycholate, 1%, 1 month) is reported as “- (- dissolved)”; in series [2] (Mannitol 10%, Sodium deoxycholate, 1%, 4 months), “- (- dissolved)”; in series [2] (Mannitol 10%, no additive, 1 month) it was “- (- dissolved)”; in series [2] (Mannitol 10%, no additive, 4 months), “+ (+ not dissolved (or deposited))”; in series [2] (Mannitol 15%, Glycerol, 0.1%, 1 month) it was “+ (+ not dissolved (or deposited))”; in series [2] (Mannitol 15%, Glycerol, 0.1%, 4 months) it was “+ (+ not dissolved (or deposited))”. Besides, the “Re-solubility after storage” value in series [2] (Mannitol 15%, Glycerol, 1%, 1 month) is given as “+ (+ not dissolved (or deposited))”; in series [2] (Mannitol 15%, Glycerol, 1%, 4 months), “+ (+ not dissolved (or deposited))”; in series [2] (Mannitol 15%, PEG400, 1%, 1 month) it was “+ (+ not dissolved (or deposited))”; in series [2] (Mannitol 15%, PEG400, 1%, 4 months), “+ (+ not dissolved (or deposited))”; in series [2] (Mannitol 15%, Sodium deoxycholate, 1%, 1 month) it was “+ (+ not dissolved (or deposited))”; in series [2] (Mannitol 15%, Sodium deoxycholate, 1%, 4 months) it was “+ (+ not dissolved (or deposited))”. The “Re-solubility after storage” value in series [2] (Mannitol 15%, no additive, 1 month) is reported as “+ (+ not dissolved (or deposited))”; in series [2] (Mannitol 15%, no additive, 4 months), “+ (+ not dissolved (or deposited))”; in series [3] (Histidine, 2 weeks), “+ (+ not dissolved (or deposited))”; in series [3] (Sodium deoxycholate, 3 days), “+ (+ not dissolved (or deposited))”.
